Test results: US12396459B2, “Synergistically effective herbicide composition comprising pyridate and at least one defined 4-HPPD inhibitor” (BELCHIM CROP PROTECTION NV, priority 2018, dated 2025)

Key:
Assay type in all cases: in vivo
Hibiscus ternatus = assay: Field trial post-emergence in maize: HIBTR; details: 7-14 DAA; # = 2; g a.c./ha: PYR 300, MES 100, PYR + MES 300 + 90
Method: (§1) Herbicidal activity of herbicide compositions according to the first aspect of the present invention with regard to different types of unwanted vegetation was determined during trials performed on test fields (field trials). Individual compositions comprising pyridate and individual compositions comprising a defined 4-HPPD inhibitor are compared with a herbicide composition according to the invention comprising both pyridate and a defined 4-HPPD inhibitor. The expected activity of the combination of the active compounds pyridate and a defined 4-HPPD inhibitor is calculated according to above mentioned calculation method by Colby, in order to evaluate a synergistic effect between pyridate and a defined 4-HPPD inhibitor.
(§2) Herbicidal activity was determined by applying herbicide compositions on emerged unwanted vegetation on fields where maize was cultivated. Pyridate and a defined 4-HPPD inhibitor were applied as a tank mixture by mixing these active compounds prior to use in a spray tank. The corresponding mixture was in the form of a spray liquor. […] At a specified number of days after application (DAA), the degree of damage to the unwanted vegetation is rated in % of plants of unwanted vegetation that were killed, which was assessed by visually controlling the plants.

Erodium ciconium = assay: Field trial post-emergence in maize: EROCC
Method: as §1
(§3) Herbicidal activity was determined by applying herbicide compositions on emerged unwanted vegetation on fields where maize was cultivated. Pyridate and a defined 4-HPPD inhibitor were applied as a tank mixture by mixing these active compounds prior to use in a spray tank. The corresponding mixture was in the form of a spray liquor. Besides, spray liquors of individual compositions comprising pyridate and of individual compositions comprising a defined 4-HPPD inhibitor were used. Test plants of unwanted vegetation with a growth stage corresponding to BBCH 10-18 (according to the extended BBCH-scale) were sprayed with the active compound preparations such that particular desired amounts of active compounds are applied per unit area. Spray liquor was diluted with water to arrive at an application volume of 50 to 450 L/ha. At a specified number of days after application (DAA), the degree of damage to the unwanted vegetation is rated in % of plants of unwanted vegetation that were killed, which was assessed by visually controlling the plants.
(§4) Example 1 concerns a herbicide composition comprising a combination of pyridate and mesotrione, which was applied post-emergence on unwanted vegetation on a field where maize was cultivated, according to the test conditions mentioned above.

Poa annua [1] = assay: Field trial post-emergence in maize: POAAN; details: for herbicidal effect (h.e.): g a.c./ha: PYR 300, MES 100, PYR + MES 300 + 90
Method: as §1, §3

Matricaria chamomilla [2] = assay: Field trial post-emergence in maize: MATCH
Method: as §1, §3, §4

Geranium sp. = assay: Field trial post-emergence in maize: GERSS; details: # = 1, g a.c./ha: PYR 300, MES 100, PYR + MES 300 + 90
Method: as §1, §3

Echinochloa crus-galli [3] = assay: Field trial post-emergence in maize: ECHCG; details: for herbicidal effect (h.e.): g a.c./ha: PYR 300, MES 100, PYR + MES 300 + 90
Method: as §1, §3

Poa annua [4] = assay: Examples 6-8 herbicidal effect: POAAN; details: 7 DAA
Anagallis arvensis = assay: Field trial post-emergence in maize: ANGAR; details: 7-14 DAA; # = 2; g a.c./ha: PYR 300, MES 100, PYR + MES 300 + 90
Method: as §1, §2

Datura stramonium = assay: Field trial post-emergence in maize: DATST; details: 7-14 DAA; # = 2; g a.c./ha: PYR 300, MES 100, PYR + MES 300 + 90
Method: as §1, §2

Echinochloa crus-galli [5] = assay: Examples 6-8 herbicidal effect: ECHCG; details: 7 DAA
Thlaspi arvense = assay: Field trial post-emergence in maize: THLAR; details: # = 1, g a.c./ha: PYR 300, MES 100, PYR + MES 300 + 90
Method: as §1, §3

Veronica persica = assay: Examples 6-8 herbicidal effect: VERPE; details: 7 DAA
Brassica napus (winter) = assay: Field trial post-emergence in maize: BRSNW; details: # = 1, g a.c./ha: PYR 300, MES 100, PYR + MES 300 + 90
Method: as §1, §3

Galium aparine = assay: Field trial post-emergence in maize: GALAP
Method: as §1, §3, §4

Atriplex patula = assay: Field trial post-emergence in maize: ATXPA
Method: as §1, §3, §4

Geranium dissectum = assay: Examples 6-8 herbicidal effect: GERDI; details: 7 DAA
Mercurialis annua = assay: Field trial post-emergence in maize: MERAN
Method: as §1, §3, §4

Matricaria chamomilla [6] = assay: Examples 6-8 herbicidal effect: MATCH; details: 7 DAA
Amaranthus retroflexus = assay: Field trial post-emergence in maize: AMARE; details: 13-14 DAA, # = 1
Method: as §1, §3

Stachys arvensis = assay: Field trial post-emergence in maize: STAAR; details: 7-14 DAA; # = 1; g a.c./ha: PYR 300, MES 100, PYR + MES 300 + 90
Method: as §1, §2

[7] = g a.c./ha: PYR 10, TEM 22, PYR + TEM 10 + 100
[8] = g a.c./ha: PYR 300, PYR + MES 300 + 80
[9] = g a.c./ha: PYR 300, SCT 300, PYR + SCT 300 + 300
[10] = g a.c./ha: PYR 300, TEM 100, PYR + TEM 300 + 100
[11] = g a.c./ha: PYR 450, SCT 450, PYR + SCT 300 + 450
[12] = g a.c./ha: PYR 600, PYR + SCT 600 + 300
[13] = g a.c./ha: PYR 900, TEM 44, PYR + TEM 900 + 44

Q: Which results are given for CCCCCCCCSC(=O)Oc1cc(Cl)nnc1-c1ccccc1 [PYR, (6-chloro-3-phenylpyridazin-4-yl) octylsulfanylformate]?
A: herbicidal effect (h.e.) (Hibiscus ternatus): 36%; PYR h.e. (Erodium ciconium; EROCC 14-20 DAA 300 g a.c./ha): 89%; PYR h.e. (Erodium ciconium; EROCC 14-20 DAA 600 g a.c./ha): 96%; herbicidal effect (h.e.) (Poa annua [1]; 7-14 DAA, # = 2): 25%; herbicidal effect (h.e.) (Poa annua [1]; 18-28 DAA, # = 3): 17%; herbicidal effect (h.e.) (Poa annua [1]; 31-48 DAA, # = 2): 17%; PYR h.e. (Poa annua [1]; POAAN 14-20 DAA 300 g a.c./ha): 7%; PYR h.e. (Poa annua [1]; POAAN 14-20 DAA 600 g a.c./ha): 17%; PYR h.e. (Poa annua [1]; POAAN 14-20 DAA 900 g a.c./ha): 36%; PYR h.e. (Poa annua [1]; POAAN 24-31 DAA 300 g a.c./ha): 5%; PYR h.e. (Poa annua [1]; POAAN 24-31 DAA 600 g a.c./ha): 13%; PYR h.e. (Poa annua [1]; POAAN 24-31 DAA 900 g a.c./ha): 28%; PYR h.e. (Matricaria chamomilla [2]; MATCH 14-20 DAA 300 g a.c./ha): 25%; PYR h.e. (Matricaria chamomilla [2]; MATCH 14-20 DAA 600 g a.c./ha): 45%; PYR h.e. (Matricaria chamomilla [2]; MATCH 14-20 DAA 900 g a.c./ha): 61%; PYR h.e. (Matricaria chamomilla [2]; MATCH 24-31 DAA 300 g a.c./ha): 5%; PYR h.e. (Matricaria chamomilla [2]; MATCH 24-31 DAA 600 g a.c./ha): 26%; PYR h.e. (Matricaria chamomilla [2]; MATCH 24-31 DAA 900 g a.c./ha): 39%; herbicidal effect (h.e.) (Geranium sp.; 7-14 DAA): 13%; herbicidal effect (h.e.) (Geranium sp.; 18-28 DAA): 0%; herbicidal effect (h.e.) (Geranium sp.; 31-48 DAA): 0%; herbicidal effect (h.e.) (Echinochloa crus-galli [3]; 7-14 DAA, # = 9): 20%; herbicidal effect (h.e.) (Echinochloa crus-galli [3]; 18-28 DAA, # = 14): 23%; herbicidal effect (h.e.) (Echinochloa crus-galli [3]; 31-48 DAA, # = 13): 23%; PYR h.e. (Echinochloa crus-galli [3]; ECHCG 14-20 DAA 300 g a.c./ha): 10%; PYR h.e. (Echinochloa crus-galli [3]; ECHCG 14-20 DAA 600 g a.c./ha): 23%; PYR h.e. (Echinochloa crus-galli [3]; ECHCG 14-20 DAA 900 g a.c./ha): 31%; PYR h.e. (Echinochloa crus-galli [3]; ECHCG 24-31 DAA 300 g a.c./ha): 0%; PYR h.e. (Echinochloa crus-galli [3]; ECHCG 24-31 DAA 600 g a.c./ha): 3%; PYR h.e. (Echinochloa crus-galli [3]; ECHCG 24-31 DAA 900 g a.c./ha): 20%; herbicidal effect (h.e.) (Poa annua [4]; [7]): 0%; herbicidal effect (h.e.) (Poa annua [4]; [8]): 3%; herbicidal effect (h.e.) (Poa annua [4]; [9]): 2%; herbicidal effect (h.e.) (Poa annua [4]; [10]): 10%; herbicidal effect (h.e.) (Poa annua [4]; [11]): 2%; herbicidal effect (h.e.) (Poa annua [4]; [12]): 0%; herbicidal effect (h.e.) (Poa annua [4]; [13]): 0%; herbicidal effect (h.e.) (Anagallis arvensis): 6%; herbicidal effect (h.e.) (Datura stramonium): 70%; herbicidal effect (h.e.) (Echinochloa crus-galli [5]; [7]): 0%; herbicidal effect (h.e.) (Echinochloa crus-galli [5]; [8]): 0%; herbicidal effect (h.e.) (Echinochloa crus-galli [5]; [9]): 0%; herbicidal effect (h.e.) (Echinochloa crus-galli [5]; [10]): 0%; herbicidal effect (h.e.) (Echinochloa crus-galli [5]; [11]): 0%; herbicidal effect (h.e.) (Echinochloa crus-galli [5]; [12]): 0%; herbicidal effect (h.e.) (Echinochloa crus-galli [5]; [13]): 5%; herbicidal effect (h.e.) (Thlaspi arvense; 7-14 DAA): 28%; herbicidal effect (h.e.) (Thlaspi arvense; 18-28 DAA): 19%; herbicidal effect (h.e.) (Veronica persica; [7]): 0%; herbicidal effect (h.e.) (Veronica persica; [8]): 8%; herbicidal effect (h.e.) (Veronica persica; [9]): 10%; herbicidal effect (h.e.) (Veronica persica; [10]): 10%; herbicidal effect (h.e.) (Veronica persica; [11]): 15%; herbicidal effect (h.e.) (Veronica persica; [12]): 10%; herbicidal effect (h.e.) (Veronica persica; [13]): 50%; herbicidal effect (h.e.) (Brassica napus (winter); 7-14 DAA): 5%; herbicidal effect (h.e.) (Brassica napus (winter); 18-28 DAA): 5%; PYR h.e. (Galium aparine; GALAP 14-20 DAA 300 g a.c./ha): 20%; PYR h.e. (Galium aparine; GALAP 14-20 DAA 600 g a.c./ha): 30%; PYR h.e. (Galium aparine; GALAP 14-20 DAA 900 g a.c./ha): 35%; PYR h.e. (Galium aparine; GALAP 24-31 DAA 300 g a.c./ha): 18%; PYR h.e. (Galium aparine; GALAP 24-31 DAA 600 g a.c./ha): 30%; PYR h.e. (Galium aparine; GALAP 24-31 DAA 900 g a.c./ha): 38%; PYR h.e. (Atriplex patula; ATXPA 24-31 DAA 300 g a.c./ha): 43%; PYR h.e. (Atriplex patula; ATXPA 24-31 DAA 600 g a.c./ha): 49%; herbicidal effect (h.e.) (Geranium dissectum; [7]): 0%; herbicidal effect (h.e.) (Geranium dissectum; [8]): 5%; herbicidal effect (h.e.) (Geranium dissectum; [9]): 15%; herbicidal effect (h.e.) (Geranium dissectum; [10]): 5%; herbicidal effect (h.e.) (Geranium dissectum; [11]): 30%; herbicidal effect (h.e.) (Geranium dissectum; [12]): 15%; herbicidal effect (h.e.) (Geranium dissectum; [13]): 10%; PYR h.e. (Mercurialis annua; MERAN 14-20 DAA 300 g a.c./ha): 48%; PYR h.e. (Mercurialis annua; MERAN 14-20 DAA 600 g a.c./ha): 78%; PYR h.e. (Mercurialis annua; MERAN 24-31 DAA 300 g a.c./ha): 10%; PYR h.e. (Mercurialis annua; MERAN 24-31 DAA 600 g a.c./ha): 33%; PYR h.e. (Mercurialis annua; MERAN 24-31 DAA 900 g a.c./ha): 80%; herbicidal effect (h.e.) (Matricaria chamomilla [6]; [7]): 0%; herbicidal effect (h.e.) (Matricaria chamomilla [6]; [8]): 0%; herbicidal effect (h.e.) (Matricaria chamomilla [6]; [9]): 0%; herbicidal effect (h.e.) (Matricaria chamomilla [6]; [10]): 0%; herbicidal effect (h.e.) (Matricaria chamomilla [6]; [11]): 0%; herbicidal effect (h.e.) (Matricaria chamomilla [6]; [12]): 0%; herbicidal effect (h.e.) (Matricaria chamomilla [6]; [13]): 0%; herbicidal effect (h.e.) (Amaranthus retroflexus; g a.c./ha: PYR 450, MES 144, PYR + MES 450 + 144): 72%; herbicidal effect (h.e.) (Amaranthus retroflexus; g a.c./ha: PYR 450, TOP 12.4, PYR + TOP 450 + 12.4): 72%; herbicidal effect (h.e.) (Stachys arvensis): 35%
